Test [1] relates to HMLE-Twist-ER cells. In words: in vitro mammosphere formation assay. The class given is cell-based, human. The following applies: HMLE-Twist-ER cells expressing shDPYD_1, exogenous addition of metabolite. How it is done:
500 cells/well were seeded in 96-well ultra-low adhesion plates (Corning, 3474) in MammoCult Basal Medium (Stem Cell Technology, 05621) containing 2.6% methylcellulose (Stem Cell Technology, H4100) and 10% MammoCult Proliferation Supplements (Stem Cell Technology, 05621), supplemented with 0.5 μg/ml hydrocortisone, 4 μg/ml Heparin and Pen/strep. Spheres were counted 12-14 days later.

The test system of test [2] is HMLE-Twist-ER cells. In words: LC-MS measurement of cellular DHU and uracil. The following applies: OHT treatment of HMLE-Twist-ER cells, 15 days time course. It counts as cell-based, human. How it is done:
Solvents were obtained from Fisher Scientific and were Optima LC/MS grade except where otherwise specified. Cells grown in standard tissue culture plates (500,000 cells per sample) were washed twice in an ice-cold solution of 0.9% NaCl in deionized water, followed by extraction on dry ice in 1 mL 80% methanol containing 10 ng/mL phenylalanine-d8 and valine-d8 (Sigma-Aldrich) as internal standards. The cell mixtures were shaken vigorously on a Vortex mixer for 10 min. at 4° C., vacuum-dried, and resuspended in 100 μL LC/MS grade water (Fisher). These extracts were then centrifuged at 15,000×g at 4° C. for 10 min, and the supernatants were passed through a cellulose acetate particulate filter (National Scientific). […]
The UPLC system was coupled to a QExactive orbitrap mass spectrometer equipped with a HESI II probe (Thermo Fisher Scientific) operating in positive ion mode. […] Quantitation of the data was performed with XCalibur QuanBrowser 2.2 (Thermo Fisher Scientific) using a 5 ppm mass tolerance, by a researcher blinded to the identity of the samples. Pure thymine (T0376), and uracil (U1128) were obtained from Sigma-Aldrich and dihydrothymine (L01996), and dihydrouracil (L01918) were obtained from Alfa Aesar and were run in half-log serial dilution (3 nM-100 μM) to confirm chromatographic retention times and generate standard curves for quantitation of each analytical batch.

Consider 4 molecules from US9551036B2, “Metabolic gene mesenchymal signatures and uses thereof” (Whitehead Institute for Biomedical Research, priority 2013, dated 2017).

“Also recorded” adds a separate entry of the source.

As for `O=c1cc[nH]c(=O)[nH]1` [uracil], the “rescue of mammosphere formation” value in the test with HMLE-Twist-ER cells [1] is on record as “significantly smaller effect”.
Turning to 4-hydroxytamoxifen [OHT], the “increase of cellular DHU/uracil molar ratio” value in the test with HMLE-Twist-ER cells [2] turned out to be 5 fold.
On to `O=C1CCNC(=O)N1` [DHU, dihydrouracil], for which the “rescue of mammosphere formation” value in the test with HMLE-Twist-ER cells [1] was “more strongly than uracil; also recorded: dose-dependent rescue of mammosphere formation”.
On the same count and under the same terms, to `CC1CNC(=O)NC1=O` (stereo not shown) [DHT, dihydrothymine] belongs “dose-dependent rescue of mammosphere formation”.
